The NIST ThermoML archive (doi:10.1016/j.jct.2005.01.002)

Experiments:
[1] = 101.33 kPa, Liquid
[2] = xn = mol fraction of the nth substance listed; settings: 101 kPa, Liquid

CCOCC [diethyl ether]
Settings | mass density [kg/m3]
[1], 298.15 K | 707.79

CCOCC [diethyl ether] + CN(C)C=O
[2], 298.15 K
Settings | mass density [kg/m3]
x2 = 0.0575 | 720.7
x2 = 0.1033 | 730.11
x2 = 0.1606 | 742.64
x2 = 0.2076 | 752.93
x2 = 0.2524 | 762.76
x2 = 0.2979 | 772.93
x2 = 0.3683 | 788.85
x2 = 0.4058 | 797.64
x2 = 0.4414 | 805.85
x2 = 0.4932 | 818.09
x2 = 0.5094 | 821.95
x2 = 0.53 | 826.82
x2 = 0.5595 | 833.95
x2 = 0.6229 | 849.26
x2 = 0.643 | 854.21
x2 = 0.717 | 872.52
x2 = 0.7584 | 882.84
x2 = 0.8124 | 896.81
x2 = 0.8523 | 906.61
x2 = 0.9295 | 926.56
x2 = 0.9655 | 936.09

CC(C)OC(C)C [diisopropyl ether]
[1]
Settings | mass density [kg/m3]
298.15 K | 718.51
313.15 K | 702.59
328.15 K | 686.2

CC(C)OC(C)C [diisopropyl ether] + CN(C)C=O
mass density [kg/m3], [2]
Settings | 298.15 K | 313.15 K | 328.15 K
x2 = 0.0551 | 726.89 | 711.08 | 694.81
x2 = 0.0998 | 733.84 | 718.04 | 701.68
x2 = 0.1567 | 742.64 | 726.81 | 710.25
x2 = 0.2133 | 751.81 | 736.08 | 719.61
x2 = 0.2581 | 759.64 | 743.93 | 727.41
x2 = 0.3049 | 767.92 | 752.25 | 735.75
x2 = 0.3548 | 777.09 | 761.49 | 744.95
x2 = 0.4003 | 785.84 | 770.29 | 753.71
x2 = 0.4401 | 793.67 | 778.18 | 761.59
x2 = 0.4868 | 803.29 | 787.92 | 771.3
x2 = 0.5049 | 807.13 | 791.8 | 775.18
x2 = 0.5285 | 812.21 | 796.95 | 780.34
x2 = 0.5548 | 818.02 | 802.83 | 786.22
x2 = 0.6182 | 832.62 | 817.65 | 801.09
x2 = 0.653 | 840.97 | 826.05 | 809.51
x2 = 0.7137 | 856.34 | 841.67 | 825.18
x2 = 0.7611 | 869.01 | 854.62 | 838.24
x2 = 0.801 | 880.32 | 866.12 | 849.8
x2 = 0.8447 | 893.01 | 879.09 | 862.93
x2 = 0.9027 | 911.02 | 897.56 | 881.59
x2 = 0.9502 | 926.7 | 913.74 | 897.98

CN(C)C=O [dimethylformamide]
[1]
Settings | mass density [kg/m3]
298.15 K | 943.85
313.15 K | 930.98
328.15 K | 915.07
343.15 K | 900.41
358.15 K | 885.68

CCCCCOCCCCC [dipentyl ether]
[1]
Settings | mass density [kg/m3]
298.15 K | 778.96
313.15 K | 768.65
328.15 K | 756.32
343.15 K | 743.97
358.15 K | 731.37

CCCOCCC [dipropyl ether]
[1]
Settings | mass density [kg/m3]
298.15 K | 741.94
313.15 K | 727.87
328.15 K | 713.73
343.15 K | 699.61
358.15 K | 684.92
